Measured values taken from patent US9751837B2, “Kinase inhibitors” (RESPIVERT LIMITED, priority 2014, dated 2017).
Like-named read-outs stand apart in the source and are kept apart here.

How the values were obtained:
[1] = target: p38 MAPKα (MAPK14) (Homo sapiens (Human), UniProt Q16539); assay: p38 MAPKα enzyme inhibition (Method 2), Z-LYTE FRET; assay type: biochemical
Procedure: (§1) The enzyme inhibitory activities of compounds disclosed herein are determined by FRET using synthetic peptides labelled with both donor and acceptor fluorophores (Z-LYTE, Invitrogen Ltd., Paisley, UK).
The following two assay variants can be used for determination of p38 MAPKα inhibition.
The inhibitory activities of test compounds against the p38 MAPKα isoform (MAPK14: Invitrogen) are evaluated indirectly by determining the level of activation/phosphorylation of the down-stream molecule, MAPKAP-K2. The p38 MAPKα protein (80 ng/mL, 2.5 μL) is mixed with the test compound (2.5 μL of either 4 μg/mL, 0.4 μg/mL, 0.04 μg/mL or 0.004 μg/mL) for 2 hr at RT. […] The mixture is incubated for 1 hr at RT. Development reagent (protease, 5 μL) is added for 1 hr prior to detection in a fluorescence microplate reader (Varioskan® Flash, ThermoFisher Scientific). […]
(§2) In all cases, the site-specific protease cleaves non-phosphorylated peptide only and eliminates the FRET signal. Phosphorylation levels of each reaction are calculated using the ratio of coumarin emission (donor) over fluorescein emission (acceptor), for which high ratios indicate high phosphorylation and low ratios indicate low phosphorylation levels.

[2] = target: c-Src (Homo sapiens (Human), UniProt P12931); assay: c-Src enzyme inhibition, Z-LYTE FRET; assay type: biochemical
Procedure: as §1
The inhibitory activities of compounds of the invention against c-Src and Syk enzymes (Invitrogen), are evaluated in a similar fashion to that described hereinabove. The relevant enzyme (3000 ng/mL or 2000 ng/mL respectively, 2.5 μL) is incubated with the test compound (either 1 μg/mL, 0.1 μg/mL, 0.01 μg/mL, or 0.001 μg/mL, 2.5 μL each) for 2 hr at RT. The FRET peptides (8 μM. 2.5 μL), and appropriate ATP solutions (2.5 μL, 800 μM for c-Src, and 60 μM ATP for Syk) are then added to the enzymes/compound mixtures and the mixture incubated for 1 hr. Development reagent (protease, 5 μL) is added for 1 hr prior to detection in a fluorescence microplate reader (Varioskan® Flash, ThermoFisher Scientific).
as §2

[3] = assay type: in vivo; conditions: four daily instillations, 0.1 and 1.0 mg/mL, rabbits
[4] = test system: Salmonella typhimurium, strains TA1535, TA1537, TA98 and TA100; assay: Bacterial reverse mutation screen, Salmonella typhimurium; conditions: for mutagenic effects (revertant numbers): TA1535, TA1537, TA98, TA100, presence or absence of S-9 mix; for mutagenic effects (revertant numbers) / limit of solubility in the mutation test: plate incorporation; for limit of solubility in the mutation test: all strains, presence and absence of S-9 mix
[5] = test system: LPS-stimulated rats; assay: Endotoxin-induced uveitis in rats (vi); assay type: in vivo, Lewis rats; conditions: rats treated with intravitreal endotoxin LPS
Procedure: Male, Lewis rats (6-8 weeks old, Charles River UK Limited) are housed in cages of 3 at 19-21° C. with a 12 h light/dark cycle (07:00/19:00) and fed a standard diet of rodent chow and water ad libitum. Non-fasted rats are weighed, individually identified on the tail with a permanent marker, and receive a single intravitreal administration into the right vitreous humor (5 μL dose volume) of 100 ng/animal of LPS (Escherichia coli 0111:B4 prepared in PBS, Sigma Aldrich, UK) using a 32-gauge needle. Untreated rats are injected with PBS. Test compound or vehicle (4% polyoxyl 40 stearate, 4% mannitol in PBS (pH 7.4)) are administered by the topical route onto the right eye (10 μL) of animals 1 hour prior to LPS, at the time of LPS administration, and 1, 2 and 4 hours post LPS administration. Before administration, the solution to be administered is sonicated to ensure a clear solution. 6 hours after LPS dosing, animals are euthanized by overdose with pentobarbitone (via cardiac puncture). Immediately after euthanasia, 10 μL of aqueous humor is collected from the right eye of the rats by puncture of the anterior chamber using a 32 gauge needle under a surgical microscope. The aqueous humor is diluted in 20 μL of PBS and total cell counts are measured immediately using a Countess automated cell counter (Invitrogen). […]

[6] = test system: Escherichia coli, WP2 uvrA; assay: Bacterial reverse mutation screen, Escherichia coli; conditions: for mutagenic effects (revertant numbers): presence or absence of S-9 mix, plate incorporation
[7] = Stability of pharmaceutical formulations (HPLC); assay type: physicochemical; conditions: 1 mg/mL Na and HCl salts in 10 mM pH 7.2 phosphate buffer, 4.5% mannitol, 3% polyoxyl 40 stearate; 5° C.
Procedure: The samples were sonicated to achieve clear solutions having the following properties: Osmolality (mOsm/kg): 310 (Na), 314 (HCl); pH: 7.00 (Na), 7.05 (HCl). 0.5 mL of the stock solutions were diluted to 1 mL with 20% DMSO in water & injected for purity analysis by HPLC. The remaining stock solutions were then split into aliquots of 0.5 mL in HPLC vials, and stored at various conditions in duplicate. Samples were stored at 5 and 25° C., before being analysed by HPLC at 1, 2 and 4 weeks. Separate samples were stored at 40° C. and analysed at 4 weeks.

[8] = Pharmacokinetics and total colon distribution after single oral administration; assay type: in vivo, male C57BL/6 mice; conditions: male, C57BL/6, mouse, mice, oral 5 mg/kg
Procedure: Studies were conducted by Sai Life Sciences (Hinjewadi, Pune, India) to investigate the systemic pharmacokinetics and total colon tissue distribution of compounds of the invention. In particular, pharmacokinetic studies were carried out in male C57BL/6 mice following a single oral administration of the compound.

[9] = target: Lck (Homo sapiens (Human), UniProt P06239); assay: KINOMEscan dissociation constant, Lck; assay type: binding
Text: (§3) These assays may be conducted by DiscoverX (formerly Ambit; San Diego, Calif.).

[10] = target: p38 MAPKα (Homo sapiens (Human), UniProt Q16539); assay: KINOMEscan dissociation constant, p38 MAPKα; assay type: binding
Text: as §3

[11] = target: B-Raf (V600E) (Homo sapiens (Human), UniProt P15056, V600E); assay: KINOMEscan binding of B-Raf (V600E) to its standard ligand
Text: as §3

[12] = target: Syk (Homo sapiens (Human), UniProt P43405); assay: KINOMEscan dissociation constant, Syk; assay type: binding
Text: as §3

[13] = target: hERG (Homo sapiens (Human), UniProt Q12809); assay: hERG inhibition, IonWorks patch clamp electrophysiology; assay type: cell-based; conditions: human; hERG, 11 μM; read-out: % Inhibition at Top Concentration
Procedure: (§4) Compounds of the invention were tested for inhibition of the human ether a go-go (hERG) channel using IonWorks™ patch clamp electrophysiology at Essen Bioscience (Welwyn Garden City, England).

[14] = target: human ether a go-go (hERG) channel (Homo sapiens (Human), UniProt Q12809); assay: as above; assay type: cell-based; conditions: IonWorks patch clamp
Procedure: as §4

[15] = target: B-Raf (Homo sapiens (Human), UniProt P15056); assay: KINOMEscan binding of B-Raf to its standard ligand
Text: as §3

[16] = plasma, measured cpd = dosed cpd (1 as Na salt, 44 as NH4+ salt), read-out: Mean plasma concentration
[17] = total colon tissue, measured cpd = dosed cpd (1, 19, 47 as Na salt, 44 as NH4+ salt), read-out: total colon level
[18] = total colon, measured cpd = dosed cpd (1, 19, 47 as Na salt, 44 as NH4+ salt), read-out: total colon level

Lck, sequence (P06239 whole entry): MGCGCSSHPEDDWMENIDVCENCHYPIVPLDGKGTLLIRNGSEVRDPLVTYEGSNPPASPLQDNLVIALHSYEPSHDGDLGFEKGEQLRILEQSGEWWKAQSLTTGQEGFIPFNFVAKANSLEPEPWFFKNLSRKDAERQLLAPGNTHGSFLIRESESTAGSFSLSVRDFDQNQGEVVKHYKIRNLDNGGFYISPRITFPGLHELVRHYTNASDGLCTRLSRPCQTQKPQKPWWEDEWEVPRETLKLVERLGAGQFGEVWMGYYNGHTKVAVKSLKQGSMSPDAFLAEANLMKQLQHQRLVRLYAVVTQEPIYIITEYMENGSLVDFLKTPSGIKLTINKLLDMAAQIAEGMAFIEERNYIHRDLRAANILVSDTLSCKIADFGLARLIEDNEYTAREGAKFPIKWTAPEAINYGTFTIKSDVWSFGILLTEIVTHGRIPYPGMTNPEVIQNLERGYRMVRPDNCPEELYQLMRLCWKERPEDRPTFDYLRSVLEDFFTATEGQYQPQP
hERG, sequence (Q12809 whole entry): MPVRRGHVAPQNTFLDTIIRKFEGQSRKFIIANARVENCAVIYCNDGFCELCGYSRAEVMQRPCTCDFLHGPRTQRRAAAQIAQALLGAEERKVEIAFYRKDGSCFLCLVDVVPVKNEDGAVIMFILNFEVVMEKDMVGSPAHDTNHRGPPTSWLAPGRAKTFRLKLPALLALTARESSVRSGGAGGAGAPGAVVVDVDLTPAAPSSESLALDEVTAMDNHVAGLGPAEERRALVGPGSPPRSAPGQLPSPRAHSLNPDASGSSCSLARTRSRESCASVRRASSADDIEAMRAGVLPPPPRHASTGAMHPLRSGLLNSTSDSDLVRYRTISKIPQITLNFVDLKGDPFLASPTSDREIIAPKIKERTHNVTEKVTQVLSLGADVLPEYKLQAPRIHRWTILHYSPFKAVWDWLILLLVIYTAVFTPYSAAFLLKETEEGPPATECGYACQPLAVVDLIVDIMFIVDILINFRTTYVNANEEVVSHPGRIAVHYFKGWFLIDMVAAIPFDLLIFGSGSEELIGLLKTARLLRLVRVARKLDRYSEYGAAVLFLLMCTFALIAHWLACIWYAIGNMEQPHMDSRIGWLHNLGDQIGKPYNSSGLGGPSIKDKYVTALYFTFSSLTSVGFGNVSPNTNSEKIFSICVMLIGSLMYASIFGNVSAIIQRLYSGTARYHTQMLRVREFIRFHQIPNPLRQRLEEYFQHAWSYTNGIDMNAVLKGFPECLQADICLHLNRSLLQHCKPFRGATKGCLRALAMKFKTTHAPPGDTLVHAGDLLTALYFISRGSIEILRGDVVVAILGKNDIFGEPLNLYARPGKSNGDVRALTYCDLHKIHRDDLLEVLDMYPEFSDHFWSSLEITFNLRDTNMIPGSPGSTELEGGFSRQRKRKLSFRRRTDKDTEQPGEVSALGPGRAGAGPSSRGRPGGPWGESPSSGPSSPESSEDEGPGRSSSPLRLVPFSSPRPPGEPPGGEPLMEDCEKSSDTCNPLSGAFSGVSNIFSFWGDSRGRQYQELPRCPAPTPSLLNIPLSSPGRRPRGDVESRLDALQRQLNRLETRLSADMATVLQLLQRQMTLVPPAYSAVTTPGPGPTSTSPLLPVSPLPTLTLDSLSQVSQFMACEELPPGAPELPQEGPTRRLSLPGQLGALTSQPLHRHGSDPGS
human ether a go-go (hERG) channel, sequence (Q12809 whole entry): as above
B-Raf (V600E), sequence (P15056 whole entry V600E): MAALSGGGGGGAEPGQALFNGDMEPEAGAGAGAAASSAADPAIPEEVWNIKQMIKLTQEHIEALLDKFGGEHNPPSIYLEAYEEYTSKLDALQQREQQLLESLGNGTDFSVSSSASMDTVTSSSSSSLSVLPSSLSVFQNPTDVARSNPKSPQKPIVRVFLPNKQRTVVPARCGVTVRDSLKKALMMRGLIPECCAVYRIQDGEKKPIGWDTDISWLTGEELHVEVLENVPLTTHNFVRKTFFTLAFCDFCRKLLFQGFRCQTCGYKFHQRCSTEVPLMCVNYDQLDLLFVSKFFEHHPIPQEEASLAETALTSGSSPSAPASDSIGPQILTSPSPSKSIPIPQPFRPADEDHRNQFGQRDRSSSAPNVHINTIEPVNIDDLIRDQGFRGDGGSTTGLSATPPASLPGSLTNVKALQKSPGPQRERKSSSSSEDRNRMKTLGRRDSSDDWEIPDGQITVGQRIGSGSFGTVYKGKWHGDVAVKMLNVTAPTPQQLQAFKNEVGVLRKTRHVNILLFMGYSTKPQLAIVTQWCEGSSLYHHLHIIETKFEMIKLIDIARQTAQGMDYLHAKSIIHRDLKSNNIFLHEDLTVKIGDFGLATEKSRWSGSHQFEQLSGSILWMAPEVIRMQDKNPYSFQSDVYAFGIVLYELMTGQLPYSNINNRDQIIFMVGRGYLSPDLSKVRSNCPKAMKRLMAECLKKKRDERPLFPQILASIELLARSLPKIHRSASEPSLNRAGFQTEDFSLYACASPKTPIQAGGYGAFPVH
c-Src, sequence (P12931 whole entry, looked up): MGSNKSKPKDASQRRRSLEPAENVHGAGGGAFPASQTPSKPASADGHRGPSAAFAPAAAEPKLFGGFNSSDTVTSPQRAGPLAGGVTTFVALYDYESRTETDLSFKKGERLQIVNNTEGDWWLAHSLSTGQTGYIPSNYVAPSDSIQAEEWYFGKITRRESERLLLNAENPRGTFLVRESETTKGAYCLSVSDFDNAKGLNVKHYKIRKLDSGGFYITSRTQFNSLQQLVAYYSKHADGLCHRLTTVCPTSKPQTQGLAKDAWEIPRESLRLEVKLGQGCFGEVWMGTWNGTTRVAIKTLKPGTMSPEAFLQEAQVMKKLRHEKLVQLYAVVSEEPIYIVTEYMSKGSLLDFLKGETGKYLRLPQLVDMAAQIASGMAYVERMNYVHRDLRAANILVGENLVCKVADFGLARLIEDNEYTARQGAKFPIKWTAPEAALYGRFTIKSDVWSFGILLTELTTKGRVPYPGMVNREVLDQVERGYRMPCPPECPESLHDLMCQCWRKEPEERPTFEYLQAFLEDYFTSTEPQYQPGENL
B-Raf, sequence (P15056 whole entry): as the sequence (P15056 whole entry V600E) above, with E600V counted along it
p38 MAPKα (MAPK14), sequence (Q16539 whole entry): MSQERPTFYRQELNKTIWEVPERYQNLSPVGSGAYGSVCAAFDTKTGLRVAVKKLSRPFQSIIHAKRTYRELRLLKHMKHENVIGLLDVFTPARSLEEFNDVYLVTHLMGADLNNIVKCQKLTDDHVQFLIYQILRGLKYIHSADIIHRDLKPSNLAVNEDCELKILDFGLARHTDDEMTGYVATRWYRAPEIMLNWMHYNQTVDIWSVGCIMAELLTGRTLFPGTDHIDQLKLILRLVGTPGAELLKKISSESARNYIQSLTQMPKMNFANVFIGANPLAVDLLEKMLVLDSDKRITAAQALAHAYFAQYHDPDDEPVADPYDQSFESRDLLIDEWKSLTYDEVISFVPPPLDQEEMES
p38 MAPKα, sequence (Q16539 whole entry): as above

In the case of COc1c(NC(=O)Nc2ccc(Oc3ccnc(Nc4ccc(C(=O)NCCN5CCOCC5)cc4)c3)c3ccccc23)cc(C(C)(C)C)cc1NS(C)(=O)=O [17(u), 4-[[4-[[4-[[5-tert-butyl-3-(methanesulfonamido)-2-methoxy-phenyl]carbamoylamino]-1-naphthyl]oxy]-2-pyridyl]amino]-N-(2-morpholinoethyl)benzamide], the IC50 [1] is reported as 66 nM and the IC50 [2] is reported as 32 nM.

With COc1cc(Nc2cc(Oc3ccc(NC(=O)Nc4cc(C(C)(C)C)cc(NS(C)(=O)=O)c4OC)c4ccccc34)ccn2)ccc1C(=O)O [Example 1, 4-((4-((4-(3-(5-(tert-Butyl)-2-methoxy-3-(methylsulfonamido)phenyl)ureido)naphthalen-1-yl)oxy)pyridin-2-yl)amino)-2-methoxybenzoic acid] the “local tolerability of the formulations (ocular)” value ([3]; Phase 1: one treatment day) was “acceptable”, the “local tolerability of the formulations (ocular)” value ([3]; Phase 2: three consecutive treatment days) was “acceptable” and the “mutagenic effects (revertant numbers)” value [4] was “absence of any mutagenic effects”. The “dose with reduction in the mean colony count (toxicity to the bacteria)” value (“dose with reduction” below) ([4]; TA1535, presence of S-9 mix) was 1500 μg/plate, the “limit of solubility in the mutation test” value [4] was 1500 μg/plate and the “cellular infiltration and cytokine IL-1β levels in anterior and posterior segments of the eyes” value [5] was “significantly and dose-dependently reduced”. For the same compound, the “mutagenic effects (revertant numbers)” value [6] was “absence of any mutagenic effects” and the stability in solution [7] was “stable”.

For COc1cc(Nc2cc(Oc3ccc(NC(=O)Nc4cc(C(C)(C)C)cc(NS(C)(=O)=O)c4OC)c4ccccc34)ccn2)ccc1P(C)(=O)O [Example 44, (4-((4-((4-(3-(5-(tert-Butyl)-2-methoxy-3-(methylsulfonamido)phenyl)ureido)naphthalen-1-yl)oxy)pyridin-2-yl)amino)-2-methoxyphenyl)(methyl)phosphinic acid], the “dose with reduction” value ([4]; TA98, presence of S-9 mix) was 5000 μg/plate, the “dose with reduction” value ([4]; TA100, presence of S-9 mix) was 5000 μg/plate and the “mutagenic effects (revertant numbers)” value [4] was “absence of any mutagenic effects”. For the same compound, the “dose with reduction” value ([4]; TA1535, presence of S-9 mix) was 5000 μg/plate, the “dose with reduction” value ([4]; TA1537, presence of S-9 mix) was 5000 μg/plate and the “limit of solubility in the mutation test” value [4] was 5000 μg/plate. For the same compound, the “dose with reduction” value ([6]; absence of S-9 mix) was 5000 μg/plate, the “mutagenic effects (revertant numbers)” value [6] was “absence of any mutagenic effects” and the concentration at 0.5 h [8, 16] was 0 ng/mL. For the same compound, the concentration at 1 h [8, 16] was 0 ng/mL, the concentration at 2 h [8, 16] was 0 ng/mL and the concentration at 4 h [8, 16] was 0 ng/mL. The concentration at 6 h [8, 16] was 0 ng/mL, the concentration at 8 h [8, 16] was 0 ng/mL and the concentration at 12 h [8, 16] was 0 ng/mL. For the same compound, the concentration at 24 h [8, 16] was 0 ng/mL, the concentration at 2 h [8, 17] was 2330 ng/g and the concentration at 4 h [8, 17] was 1750 ng/g. For the same compound, the concentration at 6 h [8, 17] was 450 ng/g, the concentration at 8 h [8, 17] was 915 ng/g and the concentration at 12 h [8, 17] was 180 ng/g. It also gave a concentration at 0.5 h [8, 18] of 0 ng/g, a concentration at 1 h [8, 18] of 0 ng/g and a concentration at 24 h [8, 18] of 0 ng/g. The Kd [9] was 5.3 nM, the Kd [10] was 1.9 nM and the “effect on the binding of B-Raf (V600E) to its standard ligand” value [11] was “did not have any significant effect”. For the same compound, the Kd [12] was 6.6 nM, the inhibition at 11 µM [13] was 18% and the IC50 [14] was greater than 11000 nM. For the same compound, the “effect on the binding of B-Raf to its standard ligand” value [15] was “did not have any significant effect”.
